According to US20070098788A1, “NON-BENZ[…] COMPOSITIONS” (priority 2005, published 2007):

Assays:
[1] = Particle size distribution by laser light scattering (Malvern); format: physicochemical; conditions: zaleplon used in Example 15 capsules; method not stated
[2] = cited from earlier work

| Compound | D90 [1] [μm] | elimination half-life ([2]; in vivo) [h] | onset of action ([2]; usually) [min] |
| --- | --- | --- | --- |
| CCN(C(C)=O)c1cccc(-c2ccnc3c(C#N)cnn23)c1 [Zaleplon, N-[3-(3-cyanopyrazolo[1,5-α]pyrimidin-7-yl)phenyl]-N-ethylacetamide] | 195 | – | – |
| Cc1ccc(-c2nc3ccc(C)cn3c2CC(=O)N(C)C)cc1 [Zolpidem, N,N, 6-trimethyl-2-p-tolyl-imidazo[1,2-a]pyridine-3-acetamide] | – | 2 to 3 | ≤ 15 |
